# Test results as given in patent publication US20250032524A1, “BROAD SPECTRUM AMINOGLYCOSIDES AND USES THEREOF” (REVAGENIX, INC., priority 2022, published 2025).
# Assays:
# K. pneumoniae = test: MIC broth microdilution (CLSI); format: cell-based
# Protocol: (§1) Minimum inhibitory concentrations for representative example compounds herein were determined by a broth microdilution method in accordance with the Clinical and Laboratory Standards Institute (CLSI) guidelines. In brief, organism suspensions were adjusted to a 0.5 McFarland standard to yield a final inoculum between 3×10^5 and 7×10^5 colony-forming units (CFU)/mL. The inoculum was prepared by suspension of a colony from an agar plate that was prepared the previous day. Compound dilutions and inoculum were prepared in sterile, cation adjusted Mueller-Hinton Broth (Beckton Dickinson).
# (§2) Bacteria were suspended in sterile saline and added to each assay plate to obtain a final concentration of 5×10^5 CFU/mL. An inoculum volume of 100 μL was added to wells containing 100 μL of broth with 2-fold serial dilutions of the test compound. All inoculated microdilution trays were incubated in ambient air at 35° C. for 18-24 hours. Following incubation, the lowest concentration of the compound that prevented visible growth (OD 600 nm<0.05) is recorded was the MIC. […] Performance of the assay was monitored by the use of laboratory quality-control strains and a standard compound with a defined MIC spectrum (neomycin), in accordance with CLSI guidelines.
# A. baumannii = test: MIC broth microdilution (CLSI); format: cell-based
# Protocol: as §1, §2
# S. enterica = test: MIC broth microdilution (CLSI); format: cell-based; settings: strain ASSE1001, MDR Clinical isolate (CDC CRE panel), CDC AR Bank 0127
# Protocol: as §1, §2
# K. aerogenes = test: MIC broth microdilution (CLSI); format: cell-based; settings: strain AEAE1042, MDR Clinical isolate (CDC CRE panel), CDC AR Bank 0161
# Protocol: as §1, §2
# P. aeruginosa = test: MIC broth microdilution (CLSI); format: cell-based
# Protocol: as §1, §2
# S. aureus = test: MIC broth microdilution (CLSI); format: cell-based
# Protocol: as §1, §2
# C. freundii = test: MIC broth microdilution (CLSI); format: cell-based; settings: strain ACSP1001, MDR Clinical isolate (CDC CRE panel), CDC AR Bank 0157
# Protocol: as §1, §2
# E. cloacae = test: MIC broth microdilution (CLSI); format: cell-based; settings: strain AECL1089, MDR Clinical isolate (CDC CRE panel), CDC AR Bank 0154
# Protocol: as §1, §2
# E. coli = test: MIC broth microdilution (CLSI); format: cell-based
# Protocol: as §1, §2
# P. mirabilis = test: MIC broth microdilution (CLSI); format: cell-based; settings: strain APMI1048, MDR Clinical isolate (CDC CRE panel), CDC AR Bank 0159
# Protocol: as §1, §2
# [1] = tested on: A. baumannii strain CDC-313; test: Neutropenic mouse lung infection model; format: in vivo; settings: neutropenic CD-1 male mice, FIG. 15
structure (smiles),measurement,setting,value
"NC[C@@H]1O[C@H](O[C@H]2[C@@H](O)[C@H](O[C@@H]3[C@@H](O)[C@H](N)C[C@H](N)[C@H]3O[C@H]3O[C@H](CN)[C@@H](O)[C@H](O)[C@H]3N)O[C@@H]2CO)[C@H](N)[C@@H](O)[C@@H]1O [NEO, neomycin, reference compound]",Activity (MIC),"K. pneumoniae; strain AKPN1246, MDR Clinical isolate (CDC CRE panel), CDC AR Bank 0139",+ (MIC threshold for positive activity (+) is ≤16 μg/mL)
same,Activity (MIC),"K. pneumoniae; strain AKPN1250, MDR Clinical isolate (CDC CRE panel), CDC AR Bank 0143",+ (MIC threshold for positive activity (+) is ≤16 μg/mL)
same,Activity (MIC),"K. pneumoniae; strain AKPN1253, MDR Clinical isolate (CDC CRE panel), CDC AR Bank 0148",+ (MIC threshold for positive activity (+) is ≤16 μg/mL)
same,Activity (MIC),"K. pneumoniae; strain AKPN1255, MDR Clinical isolate (CDC CRE panel), CDC AR Bank 0153",+ (MIC threshold for positive activity (+) is ≤16 μg/mL)
same,Activity (MIC),"A. baumannii; strain NABA0006, WT parent",+ (MIC threshold for positive activity (+) is ≤16 μg/mL)
same,Activity (MIC),"A. baumannii; strain NABA0007, ΔadeJK efflux",+ (MIC threshold for positive activity (+) is ≤16 μg/mL)
same,Activity (MIC),"A. baumannii; strain NABA0020, AME negative strain",+ (MIC threshold for positive activity (+) is ≤16 μg/mL)
same,Activity (MIC),"A. baumannii; strain NABA1427, MDR Clinical isolate",− (for inactive (−) is >16 μg/mL)
same,Activity (MIC),"A. baumannii; strain NABA1433, MDR Clinical isolate",− (for inactive (−) is >16 μg/mL)
same,Activity (MIC),"A. baumannii; strain NABA1434, MDR Clinical isolate",+ (MIC threshold for positive activity (+) is ≤16 μg/mL)
same,Activity (MIC),"A. baumannii; strain NABA1436, MDR Clinical isolate",− (for inactive (−) is >16 μg/mL)
same,Activity (MIC),"A. baumannii; strain NABA1437, MDR Clinical isolate",+ (MIC threshold for positive activity (+) is ≤16 μg/mL)
same,Activity (MIC),"A. baumannii; strain NABA1438, MDR Clinical isolate",− (for inactive (−) is >16 μg/mL)
same,Activity (MIC),"A. baumannii; strain NABA1439, MDR Clinical isolate",− (for inactive (−) is >16 μg/mL)
same,Activity (MIC),"A. baumannii; strain NABA1448, MDR Clinical isolate",− (for inactive (−) is >16 μg/mL)
same,Activity (MIC),"A. baumannii; strain NABA1449, MDR Clinical isolate",+ (MIC threshold for positive activity (+) is ≤16 μg/mL)
same,Activity (MIC),"A. baumannii; strain NABA1450, MDR Clinical isolate",− (for inactive (−) is >16 μg/mL)
same,Activity (MIC),S. enterica,+ (MIC threshold for positive activity (+) is ≤16 μg/mL)
same,Activity (MIC),K. aerogenes,+ (MIC threshold for positive activity (+) is ≤16 μg/mL)
same,Activity (MIC),"P. aeruginosa; strain NPAE0001, WT Aph(3')-IIb, QC",− (for inactive (−) is >16 μg/mL)
same,Activity (MIC),"P. aeruginosa; strain NPAE0002, WT Aph(3')-IIb",+ (MIC threshold for positive activity (+) is ≤16 μg/mL)
same,Activity (MIC),"P. aeruginosa; strain NPAE0006, Efflux KO, Aph(3')-IIb",+ (MIC threshold for positive activity (+) is ≤16 μg/mL)
same,Activity (MIC),"P. aeruginosa; strain NPAE0010, MexXY over-expressed, Aph(3')-IIb",− (for inactive (−) is >16 μg/mL)
same,Activity (MIC),"P. aeruginosa; strain NPAE0359, aph(3')-IIb KO (tetR)",− (for inactive (−) is >16 μg/mL)
same,Activity (MIC),"P. aeruginosa; strain NPAE1288, MDR Clinical isolate",− (for inactive (−) is >16 μg/mL)
same,Activity (MIC),"P. aeruginosa; strain NPAE1293, MDR Clinical isolate",− (for inactive (−) is >16 μg/mL)
same,Activity (MIC),"P. aeruginosa; strain NPAE1299, MDR Clinical isolate",− (for inactive (−) is >16 μg/mL)
same,Activity (MIC),"P. aeruginosa; strain NPAE1302, MDR Clinical isolate",− (for inactive (−) is >16 μg/mL)
same,Activity (MIC),"P. aeruginosa; strain NPAE1303, MDR Clinical isolate",− (for inactive (−) is >16 μg/mL)
same,Activity (MIC),"P. aeruginosa; strain NPAE1308, MDR Clinical isolate",− (for inactive (−) is >16 μg/mL)
same,Activity (MIC),"P. aeruginosa; strain NPAE1310, MDR Clinical isolate",+ (MIC threshold for positive activity (+) is ≤16 μg/mL)
same,Activity (MIC),"P. aeruginosa; strain NPAE1313, MDR Clinical isolate",− (for inactive (−) is >16 μg/mL)
same,Activity (MIC),"P. aeruginosa; strain NPAE1316, MDR Clinical isolate",+ (MIC threshold for positive activity (+) is ≤16 μg/mL)
same,Activity (MIC),"P. aeruginosa; strain NPAE1323, MDR Clinical isolate",− (for inactive (−) is >16 μg/mL)
same,Activity (MIC),"S. aureus; strain NSAU001, wild-type, QC, ATCC 29213",+ (MIC threshold for positive activity (+) is ≤16 μg/mL)
same,Activity (MIC),"S. aureus; strain NSAU1004, MDR Clinical isolate",+ (MIC threshold for positive activity (+) is ≤16 μg/mL)
same,Activity (MIC),"S. aureus; strain NSAU1015, MDR Clinical isolate",+ (MIC threshold for positive activity (+) is ≤16 μg/mL)
same,Activity (MIC),"S. aureus; strain NSAU1023, MDR Clinical isolate",− (for inactive (−) is >16 μg/mL)
same,Activity (MIC),"S. aureus; strain NSAU1063, MDR Clinical isolate",− (for inactive (−) is >16 μg/mL)
same,Activity (MIC),C. freundii,− (for inactive (−) is >16 μg/mL)
same,Activity (MIC),E. cloacae,+ (MIC threshold for positive activity (+) is ≤16 μg/mL)
same,Activity (MIC),"E. coli; strain AECO1225, MDR Clinical isolate (CDC CRE panel), CDC AR Bank 0118",+ (MIC threshold for positive activity (+) is ≤16 μg/mL)
same,Activity (MIC),"E. coli; strain AECO1226, MDR Clinical isolate (CDC CRE panel), CDC AR Bank 0119",+ (MIC threshold for positive activity (+) is ≤16 μg/mL)
same,Activity (MIC),"E. coli; strain AECO1227, MDR Clinical isolate (CDC CRE panel), CDC AR Bank 0128",+ (MIC threshold for positive activity (+) is ≤16 μg/mL)
same,Activity (MIC),"E. coli; strain NECO0001, WT QC",+ (MIC threshold for positive activity (+) is ≤16 μg/mL)
same,Activity (MIC),"E. coli; strain NECO0002, WT",+ (MIC threshold for positive activity (+) is ≤16 μg/mL)
same,Activity (MIC),"E. coli; strain NECO0003, ΔtolC",+ (MIC threshold for positive activity (+) is ≤16 μg/mL)
same,Activity (MIC),"E. coli; strain NECO0243, empty vector",+ (MIC threshold for positive activity (+) is ≤16 μg/mL)
same,Activity (MIC),"E. coli; strain NECO0244, AAC(6')-Ib",+ (MIC threshold for positive activity (+) is ≤16 μg/mL)
same,Activity (MIC),"E. coli; strain NECO0245, ArmA",+ (MIC threshold for positive activity (+) is ≤16 μg/mL)
same,Activity (MIC),"E. coli; strain NECO0289, APH(3')-Ia",− (for inactive (−) is >16 μg/mL)
same,Activity (MIC),"E. coli; strain NECO0302, AAC(3)-IIa",+ (MIC threshold for positive activity (+) is ≤16 μg/mL)
same,Activity (MIC),"E. coli; strain NECO0350, AAC(2')-I",+ (MIC threshold for positive activity (+) is ≤16 μg/mL)
same,Activity (MIC),"E. coli; strain NECO0359, ANT(4')-Ia",+ (MIC threshold for positive activity (+) is ≤16 μg/mL)
same,Activity (MIC),P. mirabilis,+ (MIC threshold for positive activity (+) is ≤16 μg/mL)
NCC[C@H](O)C(=O)N[C@@H]1C[C@H](N)[C@@H](O[C@H]2O[C@H](CN)[C@@H](O)[C@H](O)[C@H]2O)[C@H](O)[C@H]1O[C@H]1O[C@H](CO)[C@@H](O)[C@H](N)[C@H]1O [amikacin],in vivo antibacterial activity against the strain,[1],minimal activity
